Reference: ChEMBL document CHEMBL3608249, “Indolylpiperidine derivatives as potent and selective α1B adrenoceptor antagonists” (Bioorg Med Chem Lett, 2015)

Experiments:
[1] = molecular target: T1, Alpha-1B adrenergic receptor (Homo sapiens, UniProt P35368); experiment: Antagonist activity at human alpha1B adrenoceptor assessed as inhibition of norepinephrine-induced increase of intracellular calcium level by cell based assay; assay type: functional
T1 sequence (P35368 whole entry): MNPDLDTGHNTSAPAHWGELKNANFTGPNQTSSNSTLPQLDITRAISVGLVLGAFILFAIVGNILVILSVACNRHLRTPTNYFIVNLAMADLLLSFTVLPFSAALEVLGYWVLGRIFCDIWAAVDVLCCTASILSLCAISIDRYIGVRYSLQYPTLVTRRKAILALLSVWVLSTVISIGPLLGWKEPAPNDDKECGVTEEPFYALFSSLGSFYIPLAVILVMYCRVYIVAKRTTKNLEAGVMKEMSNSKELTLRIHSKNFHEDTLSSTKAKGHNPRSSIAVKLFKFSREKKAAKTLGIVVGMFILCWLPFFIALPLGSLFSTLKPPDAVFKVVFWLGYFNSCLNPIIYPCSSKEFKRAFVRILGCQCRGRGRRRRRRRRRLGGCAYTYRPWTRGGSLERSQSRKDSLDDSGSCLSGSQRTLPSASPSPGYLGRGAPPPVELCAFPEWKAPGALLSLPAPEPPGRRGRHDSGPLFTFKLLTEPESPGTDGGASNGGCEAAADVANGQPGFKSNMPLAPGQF

[2] = molecular target: T2, Alpha-1D adrenergic receptor (Homo sapiens, UniProt P25100); experiment: Binding affinity to human recombinant alpha1D adrenoceptor
T2 sequence (P25100 whole entry): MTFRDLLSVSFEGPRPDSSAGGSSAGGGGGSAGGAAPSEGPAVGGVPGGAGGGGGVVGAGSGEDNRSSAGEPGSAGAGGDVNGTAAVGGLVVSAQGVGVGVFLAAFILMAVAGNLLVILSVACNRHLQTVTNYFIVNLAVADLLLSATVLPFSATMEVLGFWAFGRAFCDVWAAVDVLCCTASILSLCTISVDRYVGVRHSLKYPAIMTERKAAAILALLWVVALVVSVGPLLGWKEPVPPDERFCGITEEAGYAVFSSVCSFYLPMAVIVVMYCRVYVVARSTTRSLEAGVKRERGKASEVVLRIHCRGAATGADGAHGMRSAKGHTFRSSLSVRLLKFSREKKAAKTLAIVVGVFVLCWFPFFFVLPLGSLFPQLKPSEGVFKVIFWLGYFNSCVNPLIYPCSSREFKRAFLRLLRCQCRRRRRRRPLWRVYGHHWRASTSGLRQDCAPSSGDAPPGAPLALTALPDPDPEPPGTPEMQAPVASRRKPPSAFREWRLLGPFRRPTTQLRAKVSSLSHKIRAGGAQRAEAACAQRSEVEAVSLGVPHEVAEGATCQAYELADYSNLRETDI

[3] = species on record: Rattus norvegicus; experiment: Selectivity ratio of Ki for beta adrenoceptor in rat brain to Ki for alpha1B adrenoceptor in rat liver membranes; assay type: cell membranes
[4] = molecular target: Adrenergic receptor beta (Rattus norvegicus, UniProt P18090+P10608+P26255); experiment: Binding affinity to beta adrenoceptor in rat brain; assay type: tissue-based
[5] = species on record: Rattus norvegicus; experiment: Selectivity ratio of Ki for alpha2 adrenoceptor in rat cerebral cortex to Ki for alpha1B adrenoceptor in rat liver membranes; assay type: cell membranes
[6] = molecular target: T3, Adrenergic receptor alpha-2 (Rattus norvegicus, UniProt P22086+P19328+P22909); experiment: Binding affinity to alpha2 adrenoceptor in rat cerebral cortex; assay type: tissue-based
T3 sequence (P22086 whole entry): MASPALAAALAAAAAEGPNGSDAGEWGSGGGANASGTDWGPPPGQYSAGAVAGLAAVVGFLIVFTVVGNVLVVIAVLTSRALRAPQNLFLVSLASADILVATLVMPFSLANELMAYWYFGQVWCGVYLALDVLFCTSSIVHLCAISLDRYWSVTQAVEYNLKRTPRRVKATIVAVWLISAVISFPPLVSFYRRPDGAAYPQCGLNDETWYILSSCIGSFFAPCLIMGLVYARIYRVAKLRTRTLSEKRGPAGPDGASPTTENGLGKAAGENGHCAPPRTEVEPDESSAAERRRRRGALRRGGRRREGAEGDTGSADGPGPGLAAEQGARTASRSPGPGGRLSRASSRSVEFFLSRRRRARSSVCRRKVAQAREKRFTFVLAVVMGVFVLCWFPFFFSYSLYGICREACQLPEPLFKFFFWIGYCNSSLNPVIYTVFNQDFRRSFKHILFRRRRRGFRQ
T3 sequence (P19328 whole entry): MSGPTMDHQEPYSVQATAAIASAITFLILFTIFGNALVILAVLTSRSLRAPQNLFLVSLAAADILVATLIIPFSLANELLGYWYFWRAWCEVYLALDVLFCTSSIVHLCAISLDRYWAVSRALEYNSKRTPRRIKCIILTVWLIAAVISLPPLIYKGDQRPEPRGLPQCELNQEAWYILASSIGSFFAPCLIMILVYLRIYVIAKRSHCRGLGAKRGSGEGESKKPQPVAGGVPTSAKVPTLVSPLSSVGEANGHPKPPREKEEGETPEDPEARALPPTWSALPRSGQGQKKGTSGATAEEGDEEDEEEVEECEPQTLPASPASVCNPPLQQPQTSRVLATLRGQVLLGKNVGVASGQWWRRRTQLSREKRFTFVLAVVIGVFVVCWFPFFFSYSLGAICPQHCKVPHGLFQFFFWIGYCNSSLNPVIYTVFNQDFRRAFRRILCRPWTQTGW
T3 sequence (P22909 whole entry): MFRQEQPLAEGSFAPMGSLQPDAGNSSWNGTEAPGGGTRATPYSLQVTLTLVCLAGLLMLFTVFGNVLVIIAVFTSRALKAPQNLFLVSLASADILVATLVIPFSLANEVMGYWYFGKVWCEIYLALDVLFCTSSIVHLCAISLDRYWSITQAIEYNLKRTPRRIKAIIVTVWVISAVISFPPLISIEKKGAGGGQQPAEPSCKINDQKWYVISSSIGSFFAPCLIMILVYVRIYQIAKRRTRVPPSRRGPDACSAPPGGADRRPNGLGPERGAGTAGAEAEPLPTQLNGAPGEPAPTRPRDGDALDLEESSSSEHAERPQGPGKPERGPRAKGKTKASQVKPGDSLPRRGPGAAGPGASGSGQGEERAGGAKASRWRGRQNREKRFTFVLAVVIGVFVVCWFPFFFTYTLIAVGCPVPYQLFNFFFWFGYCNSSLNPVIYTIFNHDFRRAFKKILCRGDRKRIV

[7] = Selectivity ratio of Ki for human recombinant alpha1D adrenoceptor to Ki for alpha1B adrenoceptor in rat liver membranes; assay type: cell membranes
[8] = molecular target: T4, Alpha-1A adrenergic receptor (Rattus norvegicus, UniProt P43140); experiment: Displacement of [3H]prazosin from alpha1A adrenoceptor in rat submaxillary gland membrane; assay type: cell membranes
T4 sequence (P43140 whole entry): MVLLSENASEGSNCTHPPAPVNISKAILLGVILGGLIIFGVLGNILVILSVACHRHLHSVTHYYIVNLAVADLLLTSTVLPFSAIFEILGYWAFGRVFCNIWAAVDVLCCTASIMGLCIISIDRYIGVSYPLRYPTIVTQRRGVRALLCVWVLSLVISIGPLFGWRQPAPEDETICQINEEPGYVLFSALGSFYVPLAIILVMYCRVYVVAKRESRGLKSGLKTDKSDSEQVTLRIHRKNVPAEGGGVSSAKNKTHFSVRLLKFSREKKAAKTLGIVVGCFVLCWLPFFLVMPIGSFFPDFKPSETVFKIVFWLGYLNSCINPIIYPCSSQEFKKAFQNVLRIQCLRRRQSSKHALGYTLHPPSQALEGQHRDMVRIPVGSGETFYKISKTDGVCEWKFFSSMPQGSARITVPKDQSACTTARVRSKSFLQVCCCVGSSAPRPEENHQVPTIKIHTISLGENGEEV

[9] = molecular target: T5, Alpha-1B adrenergic receptor (Rattus norvegicus, UniProt P15823); experiment: Displacement of [3H]prazosin from alpha1B adrenoceptor in rat liver membranes; assay type: cell membranes, Membrane
T5 sequence (P15823 whole entry): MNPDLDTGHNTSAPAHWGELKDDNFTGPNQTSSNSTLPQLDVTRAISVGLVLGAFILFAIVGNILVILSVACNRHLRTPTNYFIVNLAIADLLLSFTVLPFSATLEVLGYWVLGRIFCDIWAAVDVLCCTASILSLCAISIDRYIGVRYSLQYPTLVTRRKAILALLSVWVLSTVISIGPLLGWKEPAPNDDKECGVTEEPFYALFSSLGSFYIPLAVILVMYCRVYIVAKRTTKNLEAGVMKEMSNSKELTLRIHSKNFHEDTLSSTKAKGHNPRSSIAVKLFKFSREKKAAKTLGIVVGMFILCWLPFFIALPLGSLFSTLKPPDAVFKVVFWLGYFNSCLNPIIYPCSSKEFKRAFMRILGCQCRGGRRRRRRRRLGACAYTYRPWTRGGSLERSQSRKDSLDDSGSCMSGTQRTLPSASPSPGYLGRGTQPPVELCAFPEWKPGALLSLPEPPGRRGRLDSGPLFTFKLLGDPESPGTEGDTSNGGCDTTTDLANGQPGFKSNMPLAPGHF

Structure (SMILES)	Ki [8] [nM]	Ki [9] [nM]	also measured
Fc1ccc2c(C3CCN(CCCN4CCc5ccccc5C4)CC3)c[nH]c2c1			IC50 [1]: 560 nM; Ki [2]: 16 nM; Ratio Ki [3]: 40; Ki [4]: > 1000 nM; Ratio Ki [5]: 40; Ki [6]: 90 nM; Ratio Ki [7]: 40
c1ccc(CCCN2CCC(c3c[nH]c4ccccc34)CC2)cc1	16	13	
c1ccc2c(C3CCNCC3)c[nH]c2c1	3100	440	
c1ccc2c(C3CCN(CCCn4cccc4)CC3)c[nH]c2c1	86	11	
c1ccc2c(C3CCN(CCCC4CCCCC4)CC3)c[nH]c2c1	140	47	
CN(C)CCCN1CCC(c2c[nH]c3ccccc23)CC1	240	4.8	
